This is an account of results in patent EP0258782A2, “Use of 1-(substituted mercapto-hydroxyethyl)-triazoles in the treatment of illnesses” (BAYER AG, priority 1986, dated 1988).

Converted amounts (≈) assume the structure as drawn. Where only a bound is given, the exact number is not on record here.

The test system of one test is Candida-Zellen. Kind of test: Antimycotic in-vivo activity (oral) in mouse candidosis. Set-up: species or system Mäuse vom Typ SPF-CF1. On the procedure: Mäuse vom Typ SPF-CF₁ wurden intravenös mit 1 - 2 x 10⁶ logarithmisch wachsenden Candida-Zellen, die in physiologischer Kochsalzlösung suspendiert werden, infiziert. Eine Stunde vor und sieben Stunden nach der Infektion werden die Tiere mit jeweils 25 - 100 mg/kg Körpergewicht der Präparate oral behandelt.
Unbehandelte Tiere starben 3 bis 6 Tage post infektionem. Die Überlebensrate am 6.Tag post infektionem betrug bei unbehandelten Kontrolltieren etwa 5 %.

The next test relates to Trichophyton mentagr. Kind of test: Antimycotic in-vitro activity, serial dilution test (MIC). Conditions: Sabouraud's milieu d'epreuve, 28-37 °C, 96 h, inoculum 5 x 10^3 to 10^4 germs/ml, read-out: MHK-Werte in γ/ml Nährmedium, Trichophyton mentagr. In kind it is cell-based. On the procedure:
(§1) Die in-vitro-Prüfungen wurden im Reihenverdünnungstest mit Keiminokula von durchschnittlich 5 x 10³ bis 10⁴ Keimen/ml Substrat durchgeführt. Als Nähmedium dienten • a) für Dermatophyten und Schimmelpilze: Sabouraud's milieu d'epreuve • b) für Hefen: Fleischextrakt-Traubenzucker-Bouillon.
(§2) Die Bebrütungstemperatur betrug 28 °C bis 37 °C, die Bebrütungsdauer lag bei 24 bis 96 Stunden bei Hefen und 96 Stunden bei Dermatophyten und Schimmelpilzen.

A further test has as its system Microsporum canis. The description is as above. In kind it is cell-based. As to conditions: Sabouraud's milieu d'epreuve, 28-37 °C, 96 h, inoculum 5 x 10^3 to 10^4 germs/ml, read-out: MHK-Werte in γ/ml Nährmedium, Microsporum canis. As to the method:
as §1, §2

A further test concerns Torulopsis glabrata. The description is as above. In kind it is cell-based. As to conditions: Nakaseomyces glabratus; Fleischextrakt-Traubenzucker-Bouillon; 28-37 °C, 24-96 h; inoculum 5 x 10^3 to 10^4 germs/ml; read-out: MHK-Werte in γ/ml Nährmedium, Torulopsis glabrata. As to the method: as §1, §2
Another test concerns Aspergillus fumigatus. Described as above. In kind it is cell-based. Conditions: Sabouraud's milieu d'epreuve, 28-37 °C, 96 h, inoculum 5 x 10^3 to 10^4 germs/ml, read-out: MHK-Werte in γ/ml Nährmedium, Aspergillus fumigatus. As to the method: as §1, §2
The next test has as its system Candida albicans. The description is as above. As to conditions: Fleischextrakt-Traubenzucker-Bouillon, 28-37 °C, 24-96 h, inoculum 5 x 10^3 to 10^4 germs/ml, read-out: MHK-Werte in γ/ml Nährmedium, Candida albicans. In kind it is cell-based. On the procedure:
as §1, §2

For test [1], the system named is Trichophyton mentagrophytes. The test can be described thus: In-vivo activity (local) in experimental guinea pig trichophytosis. Set-up: species or system Meerschweinchen der Rasse Pirbright-white. The text has this: Weiße Meerschweinchen der Rasse Pirbright-white wurden auf dem geschorenen, nicht skarifizierten Rücken mit einer Mikro- und Makrokoniden-Suspension von Trichophyton mentagrophytes infiziert.
Die infizierten Tiere wurden beginnend mit dem 3.Tag p.i. 1 x täglich mit einer 0,1 %igen Lösung der erdingungsgemäßen Präparate (in Dimethylsulfoxid : Glycerin = 1 : 4) lokal behandelt.
Bei unbehandelten Tieren entwickelte sich innerhalb von 12 Tagen p.i. das Typische Bild einer Dermatophytose mit Rötung, Schuppung und Haarausfall bis zum totalen Integument-Defekt an der Infektionsstelle.

With `CC(C)SCC(O)(Cn1cncn1)C(C)(C)Cc1ccc(Br)cc1` (stereo not drawn) [I-40], the “Wirkung (Überlebende am 6. Tag p.i.)” value with Candida-Zellen (mice infected i.v. with Candida, 25-100 mg/kg oral, 1 h before and 7 h after infection) was “+++ (= Wirkung = 60 % Überlebende am 6.Tag.p.i.)”. Further, the “Wirkung compared with (A) and (B)” value in the test with Candida-Zellen (mouse candidosis, oral, statement in words) is “bessere Wirkung”. Further, the MIC in the test with Trichophyton mentagr. is under 1 µg/mL; in the test with Microsporum canis, 2 µg/mL (≈ 4.85 µM); with Torulopsis glabrata, under 1 µg/mL; in the test with Aspergillus fumigatus, under 1 µg/mL; in the test on Candida albicans, under 1 µg/mL. Besides, the “Wirkung (Infektionszeichen)” value in test [1] (0,1 % solution in Dimethylsulfoxid : Glycerin = 1 : 4, local, once daily from day 3 p.i.) is on record as “++++ (gute Wirkung = geringe Rötung, vereinzelt Schuppen)”. Moreover, the “Wirkung (in words)” value in test [1] (guinea pig trichophytosis, local, 0,1 % solution, statement in words) is listed as “gute”.
